Activity calls are given as the source filed them. The calls are words filed in the database; no cut-off is given here.
Columns and labels:
HepG2 = experiment: Phototoxicity against human HepG2 cells assessed as inhibition of cell viability preincubated for 3 hrs followed by photo-irradiation of 54 J/cm2 for 24 hrs by CCK8 assay; type: functional, cell-based; details: HepG2, light or radiation study
[1] = Dark cytotoxicity against human HeLa cells assessed as inhibition of cell viability incubated for 3 hrs by CCK8 assay; type: toxicity, cell-based
HeLa [2] = experiment: Phototoxicity against human HeLa cells assessed as inhibition of cell viability preincubated for 3 hrs followed by photo-irradiation of 54 J/cm2 for 24 hrs by CCK8 assay; type: functional, cell-based; details: light or radiation study
[3] = Dark cytotoxicity against human HepG2 cells assessed as inhibition of cell viability incubated for 3 hrs by CCK8 assay; type: toxicity, cell-based
HeLa [4] = experiment: Antitumor activity against human HeLa cells xenografted in nude BALB/c nu/nu mouse assessed as decrease in tumor growth at 2.5 umol/kg, iv with light irradiation of 30 J/cm2 for 1 hr measured after 24 hrs; type: functional, organism-based; details: dose 2.5 µmol/kg, time 25.0 hrs
[5] = Drug uptake in human HeLa cells assessed as increase in red fluorescence signal at 5 uM incubated for 3 hrs by fluorescence imaging based analysis; type: ADME, cell-based
HeLa [6] = experiment: Induction of cell death in human HeLa cells assessed as increase in bright red signal at 400 nM incubated for 3 hrs followed by light irradiation of 54 J/cm2 in presence of Lip-1 inhibitor by Calcein-AM/PI staining based analysis; type: functional
[7] = Drug uptake in lysosome of human HeLa cells at 5 uM incubated for 3 hrs by LysoTracker Green DND-26 dye based analysis; type: ADME, subcellular
[8] = Biodistribution in spleen of nude BALB/c nu/nu mouse bearing human HeLa cells at 2.5 umol/kg, iv measured for 3 hrs by IVIS analysis; type: ADME, organism-based; details: in vivo, dose 2.5 µmol/kg
HeLa [9] = experiment: Induction of lipid peroxidation in human HeLa cells assessed as increase in green fluorescence with a light dose of 54 J/cm2 at 100 to 400 nM incubated for 3 hrs by BODIPY 581/591 C11 dye based analysis; type: functional, cell-based; details: dose 100-400 nM
HeLa [10] = experiment: Induction of cell death in human HeLa cells assessed as increase in bright red signal at 400 nM incubated for 3 hrs followed by light irradiation of 54 J/cm2 in presence of DFO inhibitor by Calcein-AM/PI staining based analysis; type: functional
HeLa [11] = experiment: Induction of cell death in human HeLa cells assessed as increase in bright red signal at 400 nM incubated for 3 hrs followed by light irradiation of 54 J/cm2 in presence of Fer-1 inhibitor by Calcein-AM/PI staining based analysis; type: functional
[12] = Drug uptake in mitochondria of human HeLa cells at 5 uM incubated for 3 hrs by MitoTracker Green FM dye based analysis; type: ADME
HeLa [13] = experiment: Induction of cell death in human HeLa cells assessed as increase in bright red signal at 400 nM incubated for 3 hrs followed by light irradiation of 54 J/cm2 by Calcein-AM/PI staining based analysis; type: functional
HeLa [14] = experiment: Antitumor activity against human HeLa cells xenografted in nude BALB/c nu/nu mouse assessed as pathological damage in tumor at 2.5 umol/kg, iv with light irradiation of 30 J/cm2 for 1 hr measured after 24 hrs by H and E staining based analysis; type: functional, organism-based; details: dose 2.5 µmol/kg, time 25.0 hrs
HeLa [15] = experiment: Biodistribution in human HeLa cells xenografted in nude BALB/c nu/nu mouse at 2.5 umol/kg, iv measured for 3 hrs by IVIS analysis; type: ADME, organism-based; details: in vivo, dose 2.5 µmol/kg
[16] = Drug uptake in endoplasmic reticulum of human HeLa cells at 5 uM incubated for 3 hrs by ER-Tracker Green dye based analysis; type: ADME, subcellular
[17] = Toxicity in nude BALB/c nu/nu mouse bearing human HeLa cells assessed as pathological change in kidney at 2.5 umol/kg, iv with light irradiation of 30 J/cm2 for 1 hr measured for 24 hrs by H and E staining based analysis; type: organism-based; details: in vivo, 25 h, dose 2.5 µmol/kg
[18] = Drug uptake in lipid droplet of human HeLa cells at 5 uM incubated for 3 hrs by BODIPY 493/503 dye based analysis; type: ADME, subcellular
[19] = Drug uptake in human HeLa cells assessed as fold increase in fluorescence intensity at 5 uM incubated for 3 hrs by fluorescence imaging based analysis relative to control; type: ADME, cell-based
[20] = Toxicity in nude BALB/c nu/nu mouse bearing human HeLa cells assessed as pathological change in lung at 2.5 umol/kg, iv with light irradiation of 30 J/cm2 for 1 hr measured for 24 hrs by H and E staining based analysis; type: organism-based; details: in vivo, 25 h, dose 2.5 µmol/kg
[21] = Toxicity in nude BALB/c nu/nu mouse bearing human HeLa cells assessed as steady body weight increment at 2.5 umol/kg, iv with light irradiation at 30 J/cm2 for 1 hr measured for 24 hrs; type: organism-based; details: in vivo, 25 h, dose 2.5 µmol/kg
[22] = Biodistribution in skin of nude BALB/c nu/nu mouse bearing human HeLa cells at 2.5 umol/kg, iv measured for 3 hrs by IVIS analysis; type: ADME, organism-based, Skin of body; details: in vivo, dose 2.5 µmol/kg
[23] = Toxicity in nude BALB/c nu/nu mouse bearing human HeLa cells assessed as pathological change in heart at 2.5 umol/kg, iv with light irradiation of 30 J/cm2 for 1 hr measured for 24 hrs by H and E staining based analysis; type: organism-based; details: in vivo, 25 h, dose 2.5 µmol/kg
[24] = Biodistribution in kidney of nude BALB/c nu/nu mouse bearing human HeLa cells at 2.5 umol/kg, iv measured for 3 hrs by IVIS analysis; type: ADME, organism-based; details: in vivo, dose 2.5 µmol/kg
HeLa [25] = experiment: Induction of ROS generation in human HeLa cells assessed as increase in green fluorescence incubated for 3 hrs followed by light irradiation of 54 J/cm2 by H2DCFDA staining based analysis; type: functional, cell-based; details: dose 25-200 nM
[26] = Toxicity in nude BALB/c nu/nu mouse bearing human HeLa cells assessed as pathological change in liver at 2.5 umol/kg, iv with light irradiation of 30 J/cm2 for 1 hr measured for 24 hrs by H and E staining based analysis; type: organism-based; details: in vivo, 25 h, dose 2.5 µmol/kg
[27] = Toxicity in nude BALB/c nu/nu mouse bearing human HeLa cells assessed as pathological change in spleen at 2.5 umol/kg, iv with light irradiation of 30 J/cm2 for 1 hr measured for 24 hrs by H and E staining based analysis; type: organism-based; details: in vivo, 25 h, dose 2.5 µmol/kg
[28] = Toxicity in nude BALB/c nu/nu mouse bearing human HeLa cells assessed as drug tolerance at 2.5 umol/kg, iv with light irradiation of 30 J/cm2 for 1 hr measured for 24 hrs; type: organism-based; details: in vivo, 25 h, dose 2.5 µmol/kg
HeLa [29] = experiment: Induction of cell death in human HeLa cells under dark condition upto 400 nM incubated for 3 hrs by Calcein-AM/PI staining based analysis; type: functional
[30] = Biodistribution in liver of nude BALB/c nu/nu mouse bearing human HeLa cells at 2.5 umol/kg, iv measured for 3 hrs by IVIS analysis; type: ADME, organism-based; details: in vivo, dose 2.5 µmol/kg
[31] = Biodistribution in lung of nude BALB/c nu/nu mouse bearing human HeLa cells at 2.5 umol/kg, iv measured for 3 hrs by IVIS analysis; type: ADME, organism-based; details: in vivo, dose 2.5 µmol/kg
HeLa [32] = experiment: Induction of ROS generation in human HeLa cells without light irradiation at 200 nM incubated for 3 hrs by H2DCFDA staining based analysis; type: functional, cell-based

SMILES: COc1ccc(-c2c(I)c(-c3ccncc3)c3n2[B-](F)(F)[N+]2=C4C(=C(c5ccccc5)C2=N3)CCc2cc(OC)ccc24)cc1
- IC50 (HepG2): 11.1 nM
- IC50 at 3 h [1]: > 50000 nM
- IC50 (HeLa [2]): 6.1 nM
- IC50 at 3 h [3]: > 50000 nM

SMILES: C=Cc1c(C)c2cc3nc(c(CC(=O)O)c4[nH]c(cc5nc(cc1[nH]2)C(C)=C5CC)c(C)c4C(=O)O)[C@@H](CCC(=O)O)[C@@H]3C [CHLORIN E6]
- IC50 at 3 h [1]: > 50000 nM
- Activity (HeLa [4]): inactive
- IC50 at 3 h [3]: > 50000 nM

SMILES: COc1ccc(C2=[N+]3C(=Nc4c(-c5cccnc5)c(I)c(-c5ccc(OC)cc5)n4[B-]3(F)F)C(c3ccccc3)=C2)cc1
- IC50 at 3 h [1]: 17100 nM
- IC50 (HeLa [2]): 42.9 nM

SMILES: COc1ccc(C2=[N+]3C(=Nc4c(-c5ccncc5)c5c(n4[B-]3(F)F)-c3ccc(OC)cc3CC5)C(c3ccccc3)=C2I)cc1
- IC50 (HepG2): 35.8 nM
- IC50 at 3 h [1]: 37200 nM
- IC50 (HeLa [2]): 33.9 nM
- IC50 at 3 h [3]: > 50000 nM

SMILES: COc1ccc(-c2c(I)c(-c3ccc[n+](C)c3)c3n2[B-](F)(F)[N+]2=C4C(=C(c5ccccc5)C2=N3)CCc2cc(OC)ccc24)cc1
- IC50 at 3 h [1]: 1200 nM
- IC50 (HeLa [2]): 6 nM

SMILES: COc1ccc(C2=[N+]3C(=Nc4c(-c5ccccc5)c5c(n4[B-]3(F)F)-c3ccc(OC)cc3CC5)C(c3ccccc3)=C2I)cc1
- Drug uptake [5]: Active
- IC50 at 3 h [1]: > 50000 nM
- Activity (HeLa [4]): Active
- IC50 at 3 h [3]: > 50000 nM

SMILES: COc1ccc(C2=[N+]3C(=Nc4c(-c5ccc[n+](C)c5)c(I)c(-c5ccc(OC)cc5)n4[B-]3(F)F)C(c3ccccc3)=C2)cc1
- IC50 at 3 h [1]: 11200 nM
- IC50 (HeLa [2]): 214 nM

SMILES: COc1ccc(-c2c(I)c(-c3cccnc3)c3n2[B-](F)(F)[N+]2=C4C(=C(c5ccccc5)C2=N3)CCc2cc(OC)ccc24)cc1
- Activity (HeLa [6]): inactive
- Drug uptake [7]: Not Active
- Drug uptake [8]: Active
- Activity (HeLa [9]): Active
- IC50 (HepG2): 6.9 nM
- Activity (HeLa [10]): Active
- Activity (HeLa [11]): inactive
- Drug uptake [12]: Not Active
- Activity (HeLa [13]): Active
- Activity (HeLa [14]): Active
- IC50 at 3 h [1]: > 50000 nM
- Drug uptake (HeLa [15]): Active
- Drug uptake [16]: Not Active
- IC50 (HeLa [2]): 10.4 nM
- Activity (HeLa [4]): Active
- Activity [17]: Non-Toxic
- Drug uptake [18]: Active
- fold change (FC) [19]: 6
- Activity [20]: Non-Toxic
- IC50 at 3 h [3]: > 50000 nM
- Activity [21]: Non-Toxic
- Drug uptake [22]: Not Active
- Activity [23]: Non-Toxic
- Drug uptake [24]: Active
- Activity (HeLa [25]): Dose-Dependent Effect
- Activity [26]: Non-Toxic
- Activity [27]: Non-Toxic
- Activity [28]: Non-Toxic
- Activity (HeLa [29]): inactive
- Drug uptake [30]: Active
- Drug uptake [31]: Active
- Activity (HeLa [32]): inactive

SMILES: COc1ccc(C2=[N+]3C(=Nc4c(-c5cccnc5)c5c(n4[B-]3(F)F)-c3ccc(OC)cc3CC5)C(c3ccccc3)=C2I)cc1
- IC50 (HepG2): 7.5 nM
- IC50 at 3 h [1]: 37400 nM
- IC50 (HeLa [2]): 19.1 nM
- IC50 at 3 h [3]: > 50000 nM

SMILES: COc1ccc(C2=[N+]3C(=Nc4c(-c5ccccc5)c(Br)c(-c5ccc(OC)cc5)n4[B-]3(F)F)C(c3ccccc3)=C2Br)cc1
- IC50 at 3 h [1]: 41700 nM
- IC50 (HeLa [2]): 64.2 nM

SMILES: COc1ccc(-c2c(I)c(-c3cc[n+](C)cc3)c3n2[B-](F)(F)[N+]2=C4C(=C(c5ccccc5)C2=N3)CCc2cc(OC)ccc24)cc1
- IC50 at 3 h [1]: 3300 nM
- IC50 (HeLa [2]): 129 nM

SMILES: COc1ccc(C2=[N+]3C(=Nc4c(-c5ccc[n+](C)c5)c5c(n4[B-]3(F)F)-c3ccc(OC)cc3CC5)C(c3ccccc3)=C2I)cc1
- IC50 at 3 h [1]: 2300 nM
- IC50 (HeLa [2]): 41.8 nM

SMILES: COc1ccc(C2=[N+]3C(=Nc4c(-c5ccncc5)c(I)c(-c5ccc(OC)cc5)n4[B-]3(F)F)C(c3ccccc3)=C2)cc1
- IC50 at 3 h [1]: 20600 nM
- IC50 (HeLa [2]): 50.1 nM

SMILES: COc1ccc(-c2c(I)c(-c3ccccn3)c3n2[B-](F)(F)[N+]2=C4C(=C(c5ccccc5)C2=N3)CCc2cc(OC)ccc24)cc1
- IC50 (HepG2): 7.2 nM
- IC50 at 3 h [1]: 17900 nM
- IC50 (HeLa [2]): 12.1 nM
- IC50 at 3 h [3]: > 50000 nM

SMILES: COc1ccc(-c2c(I)c(-c3cccc[n+]3C)c3n2[B-](F)(F)[N+]2=C4C(=C(c5ccccc5)C2=N3)CCc2cc(OC)ccc24)cc1
- IC50 at 3 h [1]: 6100 nM
- IC50 (HeLa [2]): 118 nM
